Series [1] has as its system All larval stages of Lucilia cuprina (OP resistant). The series can be described thus: Test with fly larvae/development-inhibitory activity. The following applies: concentration 100 ppm. The format is in vivo. The procedure: Test with Fly Larvae/development-inhibitory Activity
Test animals: All larval stages of Lucilia cuprina (OP resistant) [pupae and adults (without contact with the active compound)]
35 parts by weight of ethylene glycol monomethyl ether
35 parts by weight of nonylphenol polyglycol ether
To prepare a suitable formulation, 3 parts by weight of active compound are mixed with 7 parts of the abovementioned solvent-emulsifier mixture, and the resulting emulsion concentrate is diluted with water to the concentration desired in each case.
For each concentration, 30 to 50 larvae are transferred to horse meat (1 cm^3) located in glass tubes, and 500 μl of the test dilution are pipetted onto the meat. The glass tubes are placed into plastic beakers whose bottom is covered with sea sand and kept in a controlled-environment cabinet (26° C. ±1.5° C., 70% ±10% relative humidity). Larvicidal activity is checked after 24 hours and 48 hours. After the larvae have left (about 72 h), the glass tubes are removed and perforated plastic lids are placed on the beakers. After 1½ times the development period (hatching of the control flies), the hatched flies and the pupae/puparia are counted.
The criterion for the activity is the death of the treated larvae after 48 h (larvicidal effect), or inhibition of adults hatching from the pupae or inhibition of pupation. […]

In series [2] the test system is larvae of the mustard beetle (Phaedon cochleariae). As to the kind of experiment: Phaedon larvae test. The format is in vivo. The following applies: after 7 days. The procedure:
(§1) Solvent: 7 parts by weight of dimethylformamide
(§2) Emulsifier: 1 part by weight of alkylaryl polyglycol ether
To produce a suitable preparation of active compound, 1 part of weight of active compound is mixed with the stated amount of solvent and the stated amount of emulsifier, and the concentrate is diluted with water to the desired concentration.
After the desired period of time, the kill in % is determined. 100% means that all the beetle larvae have been killed; 0% means that none of the beetle larvae have been killed.

Series [3] is described as follows: log p, n-octanol/water partition coefficient by reverse phase HPLC (H2O/CH3CN). The class given is physicochemical. The following applies: pH 7.5; for chromatographic logP: n-octanol/water.
The subject of series [4] is caterpillars of the diamond back moth (Plutella xylostella). The series can be described thus: Plutella test. The following applies: active compound concentration 0.1%, after 6 days. The format is in vivo. How it is done:
as §1, §2
(§3) To produce a suitable preparation of active compound, 1 part by weight of active compound is mixed with the stated amount of solvent and the stated amount of emulsifier, and the concentrate is diluted with water to the desired concentration.
Cabbage leaves (Brassica oleracea) are treated by being dipped into the active compound preparation of the desired concentration and populated with caterpillars of the diamond back moth (Plutella xylostella) while the leaves are still moist.
(§4) After the desired period of time, the kill in % is determined. 100% means that all the caterpillars have been killed; 0% means that none of the caterpillars have been killed.

The test system of series [5] is greenhouse red spider mite (Tetranychus urticae). The series can be described thus: Tetranychus test (OP resistant/dip treatment). The following applies: active compound concentration 0.01%, after 7 days. The class given is in vivo. How it is done: Tetranychus Test (OP Resistant/Dip Treatment)
Solvent: 3 parts by weight of dimethylformamide
as §2
To produce a suitable preparation of active compound, 1 part by weight of active compound is mixed with the stated amount of solvent and the stated amount of emulsifier, and the concentrate is diluted to the desired concentration using emulsifier-containing water.
Bean plants (Phaseolus vulgaris) which are heavily infested by all stages of the greenhouse red spider mite (Tetranychus urticae) are dipped into an active compound preparation of the desired concentration.
After the desired period of time, the kill in % is determined. 100% means that all the spider mites have been killed; 0% means that none of the spider mites have been killed.

Series [6] concerns caterpillars of the army worm (Spodoptera exigua). As to the kind of experiment: Spodoptera exigua test. The class given is in vivo. The note with it: active compound concentration 0.1%, after 6 days. The procedure: as §1, §2, §3
Cabbage leaves (Brassica oleracea) are treated by being dipped into the active compound preparation of the desired concentration and populated with caterpillars of the army worm (Spodoptera exigua) while the leaves are still moist.
After the desired period of time, the activity in % is determined. 100% means that all the caterpillars have been killed; 0% means that none of the caterpillars have been killed.

Series [7] has as its system caterpillars of the owlet moth (Spodoptera frugiperda). The series can be described thus: Spodoptera test. The format is in vivo. The note with it: active compound concentration 0.1%, after 7 days. The procedure:
as §1, §2, §3
Cabbage leaves (Brassica oleracea) are treated by being dipped into the active compound preparation of the desired concentration and populated with caterpillars of the owlet moth (Spodoptera frugiperda) while the leaves are still moist.
as §4

The subject of series [8] is caterpillars of the cotton bollworm (Heliothis armigera). As to the kind of experiment: Heliothis armigera test. The note with it: active compound concentration 0.1%, in 6 days. The format is in vivo. The procedure:
as §1, §2
To produce a suitable preparation of active compound, 1 part by weight of active compound is mixed with the stated amounts of solvent and emulsifier, and the concentrate is diluted with water to the desired concentration.
Soya bean shoots (Glycine max) are treated by being dipped into the active compound preparation of the desired concentration and populated with caterpillars of the cotton bollworm (Heliothis armigera) while the leaves are still moist.
as §4

Series [9] concerns green rice leaf hoppers (Nephotettix cincticeps). The series can be described thus: Nephotettix test. The format is in vivo. The following applies: active compound concentration 1%, after 6 days. How it is done:
as §1, §2, §3
Rice seedlings (Oryza sativa) are treated by being dipped into the active compound preparation of the desired concentration and populated with green rice leaf hoppers (Nephotettix cincticeps) while the seedlings are still moist.
After the desired period of time, the kill in % is determined. 100% means that all the leaf hoppers have been killed; 0% means that none of the leaf hoppers have been killed.

Where [10] appears, read: active compound concentration 0.01%.
The mark [11] stands for this setting: active compound concentration 0.1%.

The text below walks through data of patent publication US6410581B1, “Disubstituted biphenyloxazolines” (Bayer Aktiengesellschaft, priority 1997, dated 2002).

`CC(C)(C)c1ccc(COc2ccc(-c3ccc(C4COC(c5c(F)cccc5F)=N4)cc3)cc2Cl)cc1` (stereo not shown) [Example I-22] gave a development-inhibitory activity in series [1] of 100%.

For the compound `CC(C)Oc1ccc(-c2ccc(C3COC(c4c(F)cccc4F)=N3)cc2)cc1Cl` (stereo not shown) [Example I-19], the development-inhibitory activity in series [1] worked out at 100%. This compound also registered a kill in % in series [2] (setting [10]) of 100%. Also, the log p result in [3] is listed as “log p (pH 7.5): 4.96”.

In general, melting point refers to the temperature of the solid-liquid transition. As for `CCCc1cc(-c2ccc(C3COC(c4c(F)cccc4F)=N3)cc2)ccc1OC(C)C` (stereo not shown) [Example I-2, 2-(2,6-Difluorophenyl)-4-(4-(4-propyl-2-oxy)-3-n-propylphenyl)phenyl-2-oxazoline], the melting point lay within 60 to 62 °C. In addition, in [2] (setting [10]), the kill in % is listed as 100%.

As to `CC(C)Oc1ccc(-c2ccc(C3COC(c4ccccc4Cl)=N3)cc2)cc1Cl` (stereo not shown) [Example I-30], the kill in % in series [2] (setting [10]) amounted to 100%. Besides, the log p entry in [3] is “log p (pH 7.5): 5.37”.

For the compound `CC(C)Oc1c(Cl)cc(-c2ccc(C3COC(c4c(F)cccc4F)=N3)cc2)cc1Cl` (stereo not shown) [Example I-342, 2-(2,6-Difluorophenyl)-4-(4-(4-(propyl-2-oxy)-3,5-dichlorophenyl)phenyl)-4,5-dihydro-oxazoline], the kill in % in series [4], in series [5], in [6], in series [7], in series [2] (setting [11]) and in series [8] was 100% throughout. The compound also displayed a log p in [3] of 5.65.

In the case of `CCCc1cc(-c2ccc(C3COC(c4ccccc4Cl)=N3)cc2)ccc1OCC(C)O` (stereo not shown) [Example I-39], the log p entry in series [3] is recorded as “log p: 4.47 (pH 7.5)”.

Consider `CC(C)COc1ccc(-c2ccc(C3COC(c4ccccc4Cl)=N3)cc2)cc1Cl` (stereo not shown) [Example I-34], for which the log p entry in series [3] was “log p (pH 7.5): 6.03”.

For the compound `Cc1cc(-c2ccc(C3COC(c4ccccc4C)=N3)cc2)ccc1OC(C)C` (stereo not shown) [Example I-70], in series [3], the log p result is listed as “log p: 6.02 (pH 7.5)”.

Consider `Cc1cc(-c2ccc(C3COC(c4ccccc4Cl)=N3)cc2)ccc1OC(C)C` (stereo not shown) [Example I-229], for which, in series [3], the log p entry is given as “log p: 5.56”.

`C=CCOc1c(Cl)cc(-c2ccc(C3COC(c4c(F)cccc4F)=N3)cc2)cc1Cl` (stereo not shown) [Example I-344]: the kill in % in series [5], in series [7], in [2] (setting [11]) and in series [9] was 100% throughout.

With `CCC(C)Oc1ccc(-c2ccc(C3COC(c4ccccc4F)=N3)cc2)cc1C` (stereo not shown) [Example I-192], in series [3], the log p result is listed as “log p: 5.70”.

On to `C=CCOc1ccc(-c2ccc(C3COC(c4c(F)cccc4Cl)=N3)cc2)cc1Cl` (stereo not shown) [Example I-80], for which, in series [3], the log p entry is “log p: 4.99 (pH 7.5)”.

In the case of `C=CCOc1c(Cl)cc(-c2ccc(C3COC(c4ccccc4Br)=N3)cc2)cc1CC=C` (stereo not shown) [Example I-283], in [3], the log p entry is given as “log p: 6.05”.

Take `C=CCOc1ccc(-c2ccc(C3COC(c4ccccc4C)=N3)cc2)cc1Cl` (stereo not shown) [Example I-155]: the log p result in series [3] is listed as “log p: 5.47 (pH 7.5)”.

For `Cc1cc(-c2ccc(C3COC(c4ccccc4I)=N3)cc2)ccc1OC(C)C` (stereo not shown) [Example I-67], in [3], the log p entry is on record as “log p: 5.81 (pH 7.5)”.

A word on the chromatographic logP: it is a lipophilicity value derived from retention on a column. In series [3], `CCOC(=O)Oc1c(Cl)cc(-c2ccccc2)cc1Cl` [(2,6-dichloro-4-phenyl-phenyl) ethyl carbonate] registered a chromatographic logP of 4.65.

With `C=CCc1cc(-c2ccc(C3COC(c4ccccc4Cl)=N3)cc2)ccc1OC(C)C` (stereo not shown) [Example I-250], in [3], the log p result is given as “log p: 5.93”.

For the compound `CCCOc1ccc(-c2ccc(C3COC(c4ccccc4F)=N3)cc2)cc1Cl` (stereo not shown) [Example I-87], in series [3], the log p result is recorded as “log p: 5.22 (pH 7.5)”.

As to `C=CCOc1ccc(-c2ccc(C3COC(c4c(F)cccc4Cl)=N3)cc2)cc1CC=C` (stereo not shown) [Example I-181], the log p result in [3] is given as “log p: 5.49”.

With `CC(C)Oc1ccc(-c2ccc(C3COC(c4c(F)cccc4Cl)=N3)cc2)cc1Cl` (stereo not shown) [Example I-71], in [3], the log p result was “log p: 5.25 (pH 7.5)”.

In the case of `C=CCc1cc(-c2ccc(C3COC(c4c(F)cccc4Cl)=N3)cc2)ccc1OC(C)CC` (stereo not shown) [Example I-179], the log p entry in series [3] was “log p: 6.33”.

In the case of `CCCc1cc(-c2ccc(C3COC(c4c(F)cccc4F)=N3)cc2)ccc1O` (stereo not shown) [II-1, 2-(2,6-Difluorophenyl)-4-(4-(4-hydroxy-3-n-propylphenyl)phenyl)-2-oxazoline], the chromatographic logP in series [3] came to 3.77.

As for `C=CCc1cc(-c2ccc(C3COC(c4c(F)cccc4Cl)=N3)cc2)ccc1OCCC` (stereo not shown) [Example I-176], in [3], the log p result is listed as “log p: 5.98”.

As to `C#CCOc1ccc(-c2ccc(C3COC(c4ccccc4F)=N3)cc2)cc1Cl` (stereo not shown) [Example I-221], the log p entry in series [3] was “log p: 4.16”.
